Results taken from patent US20220304953A1, “PHARMACEUTICAL DOSAGE FORM COMPRISING METFORMIN AND CALCIUM CITRATE” (DSM IP ASSETS B.V., priority 2019, published 2022).

Assays:
[1] = compared to calcium carbonate; cited from earlier work
[2] = Tablet hardness (Krämer UTS4 1, force needed to break a tablet axially); type: physicochemical; settings: tablets of example 2 with the named calcium salt, Prosolv SMCC90 binder; in words
Experimental: For compressing the tablets, a single punch press (Korsch XP-1, available at Korsch, Berlin) was used.
Tablet hardness was then measured using a Krämer UTS4 1 apparatus.
Said four tablet mixtures were compressed into tablets, similar to example 2. Tablet hardness was then measured.
Tablet hardness was measured as described in USP <1217> and EP<2.9.8.> with a Krämer UTS4 1 tester (Kraemer Elektronik GmbH, Darmstadt, Germany). The inventors measured the force needed to break a tablet axially. Presented are the average values of 10 measurements.

Compound | bioavailability [1] | tablet hardness (compression profiles, FIG. 1) [2]
O=C([O-])CC(O)(CC(=O)[O-])C(=O)[O-].O=C([O-])CC(O)(CC(=O)[O-])C(=O)[O-].[Ca+2].[Ca+2].[Ca+2] [calcium citrate] | superior bioavailability than calcium carbonate | –
anhydrous calcium citrate | – | a lot worse
